Earlier results as cited in patent US20260232577A1, “A MACROLIDE FOR USE IN A METHOD OF PREVENTING OR TREATING AN IMMUNOLOGICAL DISEASE OR DISORDER” (Nucleus Medical GmbH, priority 2023, published 2026).

bioavailability variability (after oral administration, international literature): 4-90%
blood level fluctuations, variation range (after oral application, internationally described): more than 80%
oral bioavailability on average (limited by presystemic metabolism in the GI tract): ~ 25%
SMILES: C=CC[C@@H]1/C=C(\C)C[C@H](C)C[C@H](OC)[C@H]2O[C@@](O)(C(=O)C(=O)N3CCCC[C@H]3C(=O)O[C@H](/C(C)=C/[C@@H]3CC[C@@H](O)[C@H](OC)C3)[C@H](C)[C@@H](O)CC1=O)[C@H](C)C[C@@H]2OC [tacrolimus]
